Patent US7378413B2, “2-amino-3-(alkyl)-pyrimidone derivatives” (Sanofi Aventis, priority 2000, dated 2008)
Where a name gives a salt, the structure may show the parent alone.

SMILES | melting point
CCCCCCCCNc1nc(-c2ccncc2)cc(=O)n1C | 114 to 116 °C
Cn1c(NCc2cccc(CN)c2)nc(-c2ccncc2)cc1=O (as salt: hydrochloride) | 193 to 197 °C
NCCCCCCNc1nc(-c2ccncc2)cc(=O)n1CCCc1ccccc1 (as salt: hydrochloride) | 142 to 143 °C
NCCCCCCNc1nc(-c2ccncc2)cc(=O)n1CCc1ccccc1 (as salt: hydrochloride) | 225 to 228 °C
NCCCCCCn1c(NCCCc2ccccc2)nc(-c2ccncc2)cc1=O (as salt: hydrochloride) | 192 to 195 °C
NCCCCCCn1c(NCCc2ccccc2)nc(-c2ccncc2)cc1=O (as salt: hydrochloride) | 125 to 127 °C
CN(C)CCn1c(NCCCc2ccccc2)nc(-c2ccncc2)cc1=O (as salt: hydrochloride) | 212 to 215 °C
NCCCCCCNc1nc(-c2ccncc2)cc(=O)n1Cc1ccccc1 (as salt: hydrochloride) | 292 to 298 °C
Cn1c(NCc2cccc(OCCCN)c2)nc(-c2ccncc2)cc1=O (as salt: hydrochloride) [Compound 26, 2-[[[3-(3-aminopropoxy)phenyl]methyl]amino]-3-methyl-6-pyridin-4-ylpyrimidin-4(3H)-one] | 193 to 196 °C
Cn1c(NCCCCCN)nc(-c2ccncc2)cc1=O (as salt: hydrochloride) [Compound 40, 2-(5-Amino-pentylamino)-3-methyl-6-pyridin-4-yl-3H-pyrimidin-4-one] | 259 to 262 °C
NCCCCNc1nc(-c2ccncc2)cc(=O)n1CCCc1ccccc1 (as salt: hydrochloride) [Compound 41, 2-(4-Amino-butylamino)-3-(3-phenyl-propyl)-6-pyridin-4-yl-3H-pyrimidin-4-one] | 134 to 136 °C
NCCCCCNc1nc(-c2ccncc2)cc(=O)n1CCc1ccccc1 (as salt: hydrochloride) [Compound 43, 2-(5-Amino-pentylamino)-3-phenethyl-6-pyridin-4-yl-3H-pyrimidin-4-one] | 235 to 238 °C
NCCCCNc1nc(-c2ccncc2)cc(=O)n1CCc1ccccc1 (as salt: hydrochloride) [Compound 45, 2-(4-Amino-butylamino)-3-phenethyl-6-pyridin-4-yl-3H-pyrimidin-4-one] | 246 to 248 °C
CCCCCCCCCCNc1nc(-c2ccncc2)cc(=O)n1C (as salt: hydrochloride) [Compound 53, 2-Decylamino-3-methyl-6-pyridin-4-yl-3H-pyrimidin-4-one] | 162 to 164 °C
CN(CCCC1CCCCC1)c1nc(-c2ccncc2)cc(=O)n1C (as salt: hydrochloride) [Compound 68, 2-[(3-Cyclohexyl-propyl)-methyl-amino]-3-methyl-6-pyridin-4-yl-3H-pyrimidin-4-one] | 188 to 191 °C
Cn1c(NCc2cccc(OCCC3CCNCC3)c2)nc(-c2ccncc2)cc1=O (as salt: hydrochloride) [Compound 72, 3-methyl-2-[3-(2-piperidin-4-yl-ethoxy)-benzylamino]-6-pyridin-4-yl-3H-pyrimidin-4-one] | 225 to 232 °C
CNCc1ccc(CCN(C)c2nc(-c3ccncc3)cc(=O)n2C)cc1 (as salt: hydrochloride) [Compound 75, 3-Methyl-2-{methyl-[2-(4-methylaminomethyl-phenyl)-ethyl]-amino}-6-pyridin-4-yl-3H-pyrimidin-4-one] | 157 to 160 °C
Cn1c(N(CCCN)CCCc2ccccc2)nc(-c2ccncc2)cc1=O (as salt: hydrochloride) [Compound 77, 2-[(3-Amino-propyl)-(3-phenyl-propyl)-amino]-3-methyl-6-pyridin-4-yl-3H-pyrimidin-4-one] | 185 to 189 °C
NCCCCCn1c(NCCCc2ccccc2)nc(-c2ccncc2)cc1=O (as salt: hydrochloride) [Compound 79, 3-(5-Amino-pentyl)-2-(3-phenyl-propylamino)-6-pyridin-4-yl-3H-pyrimidin-4-one] | 123 to 126 °C
NCCCCn1c(NCCCc2ccccc2)nc(-c2ccncc2)cc1=O (as salt: hydrochloride) [Compound 80, 3-(4-Amino-butyl)-2-(3-phenyl-propylamino)-6-pyridin-4-yl-3H-pyrimidin-4-one] | 124 to 127 °C
Cn1c(NCc2cccc(OCCCc3ccncc3)c2)nc(-c2ccncc2)cc1=O (as salt: hydrochloride) [Compound 81, 3-Methyl-6-pyridin-4-yl-2-[3-(3-pyridin-4-yl-propoxy)-benzylamino]-3H-pyrimidin-4-one] | 210 to 213 °C
NCCn1c(NCCCc2ccccc2)nc(-c2ccncc2)cc1=O (as salt: hydrochloride) [Compound 84, 3-(2-Amino-ethyl)-2-(3-phenyl-propylamino)-6-pyridin-4-yl-3H-pyrimidin-4-one] | 145 to 148 °C

SMILES | melting point
COc1ccccc1CCNc1nc(-c2ccncc2)cc(=O)n1CCCN (as salt: hydrochloride) [Compound 85, 3-(3-Amino-propyl)-2-[2-(2-methoxy-phenyl)-ethylamino]-6-pyridin-4-yl-3H-pyrimidin-4-one] | 198 to 201 °C
NCCCCCn1c(NCCc2ccccc2)nc(-c2ccncc2)cc1=O (as salt: hydrochloride) [Compound 88, 3-(5-Amino-pentyl)-2-phenethylamino-6-pyridin-4-yl-3H-pyrimidin-4-one] | 178 to 180 °C
NCCCCn1c(NCCc2ccccc2)nc(-c2ccncc2)cc1=O (as salt: hydrochloride) [Compound 89, 3-(4-Amino-butyl)-2-phenethylamino-6-pyridin-4-yl-3H-pyrimidin-4-one] | 170 to 175 °C
NCCCCNc1nc(-c2ccncc2)cc(=O)n1Cc1ccccc1 (as salt: hydrochloride) [Compound 90, 2-(4-Amino-butylamino)-3-benzyl-6-pyridin-4-yl-3H-pyrimidin-4-one] | 163 to 168 °C (dec.)
Cn1c(NCC=Cc2ccccc2)nc(-c2ccncc2)cc1=O (as salt: hydrochloride) [Compound 95, 3-Methyl-2-(3-phenyl-allylamino)-6-pyridin-4-yl-3 H-pyrimidin-4-one] | 198 to 200 °C
Cn1c(NCCCc2ccccc2)nc(-c2ccncc2)cc1=O (as salt: hydrochloride) [Compound 96, 3-Methyl-2-(3-phenyl-propylamino)-6-pyridin-4-yl-3H-pyrimidin-4-one] | 187 to 189 °C
Cn1c(NCCc2c[nH]c3ccccc23)nc(-c2ccncc2)cc1=O (as salt: oxalate) [Compound 29, 2-[[2-(1H-indol-3-yl)ethyl]amino]-3-methyl-6-pyridin-4-ylpyrimidin-4(3H)-one] | 217 to 218 °C
CCNc1nc(-c2ccncc2)cc(=O)n1C (as salt: oxalate) [Compound 36, 2-(ethylamino)-3-methyl-6-pyridin-4-ylpyrimidin-4(3H)-one] | 239 to 241 °C
Cn1c(N2CCCCC2)nc(-c2ccncc2)cc1=O (as salt: tartrate) [Compound 38, 2-(piperidin-1-yl)-3-methyl-6-pyridin-4-ylpyrimidin-4(3H)-one] | 228 to 230 °C
COc1ccccc1CCNc1nc(-c2ccncc2)cc(=O)n1C [Compound 4, 2-[[2-(2-methoxyphenyl)ethyl]amino]-3-methyl-6-pyridin-4-ylpyrimidin-4(3H)-one] | 149.2 to 149.5 °C
Cn1c(NCCc2ccccc2F)nc(-c2ccncc2)cc1=O [Compound 5, 2-[[2-(2-fluorophenyl)ethyl]amino]-3-methyl-6-pyridin-4-ylpyrimidin-4(3H)-one] | 184 to 187.2 °C
Cn1c(NCCc2cccc(F)c2)nc(-c2ccncc2)cc1=O [Compound 6, 2-[[2-(3-fluorophenyl)ethyl]amino]-3-methyl-6-pyridin-4-ylpyrimidin-4(3H)-one] | 158.9 to 159.2 °C
Cn1c(NCCc2ccc(F)cc2)nc(-c2ccncc2)cc1=O [Compound 7, 2-[[2-(4-fluorophenyl)ethyl]amino]-3-methyl-6-pyridin-4-ylpyrimidin-4(3H)-one] | 178.8 to 178.9 °C
Cn1c(NCCc2ccccc2Cl)nc(-c2ccncc2)cc1=O [Compound 9, 2-[[2-(2-chlorophenyl)ethyl]amino]-3-methyl-6-pyridin-4-ylpyrimidin-4(3H)-one] | 175.2 to 175.4 °C
Cn1c(NCCc2ccc(N)cc2)nc(-c2ccncc2)cc1=O [Compound 11, 2-[[2-(4-aminophenyl)ethyl]amino]-3-methyl-6-pyridin-4-ylpyrimidin-4(3H)-one] | 197.3 to 197.5 °C
COc1ccc(CCNc2nc(-c3ccncc3)cc(=O)n2C)cc1OC [Compound 12, 2-[[2-(3,4-dimethoxyphenyl)ethyl]amino]-3-methyl-6-pyridin-4-ylpyrimidin-4(3H)-one] | 187 to 187.1 °C
COc1ccc(OC)c(CCNc2nc(-c3ccncc3)cc(=O)n2C)c1 [Compound 13, 2-[[2-(2,5-dimethoxyphenyl)ethyl]amino]-3-methyl-6-pyridin-4-ylpyrimidin-4(3H)-one] | 180.9 to 181.3 °C
Cn1c(NCCc2ccc(Cl)cc2)nc(-c2ccncc2)cc1=O [Compound 14, 2-[[2-(4-chlorophenyl)ethyl]amino]-3-methyl-6-pyridin-4-ylpyrimidin-4(3H)-one] | 165.3 to 165.5 °C
Cn1c(NCCc2ccc(O)cc2)nc(-c2ccncc2)cc1=O [Compound 15, 2-[[2-(4-hydroxyphenyl)ethyl]amino]-3-methyl-6-pyridin-4-ylpyrimidin-4(3H)-one] | 257.4 to 257.9 °C
Cc1ccc(CCNc2nc(-c3ccncc3)cc(=O)n2C)cc1 [Compound 16, 2-[[2-(4-methylphenyl)ethyl]amino]-3-methyl-6-pyridin-4-ylpyrimidin-4(3H)-one] | 184.7 to 185 °C
Cn1c(NCCc2cccc(Cl)c2)nc(-c2ccncc2)cc1=O [Compound 18, 2-[[2-(3-chlorophenyl)ethyl]amino]-3-methyl-6-pyridin-4-ylpyrimidin-4(3H)-one] | 162.8 to 163 °C
